11 molecules from ChEMBL document CHEMBL3046501, “Synthesis, characterization & anticonvulsant activity of amide derivatives of 4-amino-1,2-naphthoquinone” (Med Chem Res, 2013) can be followed below.

Structures are written as SMILES. Calls of active or inactive are those of the source. The rule behind the calls is not given here.

The test system of series [1] is Mus musculus. Put plainly: Anticonvulsant activity in Swiss albino Mus musculus (mouse) assessed as protection against maximal electroshock-induced seizures at 5 mg/kg, ip after 3 hr. It is filed as functional, organism-based. Set-up: dose 5 mg/kg. (In general: In the maximal electroshock model the usual endpoint is tonic extension of the hind limbs.)
The subject of series [2] is Mus musculus. Put plainly: Anticonvulsant activity in Swiss albino Mus musculus (mouse) assessed as protection against maximal electroshock-induced seizures at 5 mg/kg, ip after 1 hr. More on the design: dose 5 mg/kg. It is filed as functional, organism-based.
Series [3] deals with Mus musculus. Put plainly: Anticonvulsant activity in Swiss albino Mus musculus (mouse) assessed as protection against subcutaneous pentylenetetrazol-induced seizures at 5 mg/kg, ip after 0.5 hr. More on the design: dose 5 mg/kg. The format is functional, organism-based.
Series [4] deals with Mus musculus. As to the kind of experiment: Anticonvulsant activity in Swiss albino Mus musculus (mouse) assessed as protection against maximal electroshock-induced seizures at 40 mg/kg, ip after 1 hr. The format is functional, organism-based. Set-up: dose 40 mg/kg.
In series [5] the test system is Mus musculus. As to the kind of experiment: Anticonvulsant activity in Swiss albino Mus musculus (mouse) assessed as protection against maximal electroshock-induced seizures at 20 mg/kg, ip after 1 hr. The format is functional, organism-based. Set-up: dose 20 mg/kg.
Series [6] deals with Mus musculus. As to the kind of experiment: Anticonvulsant activity in Swiss albino Mus musculus (mouse) assessed as protection against subcutaneous pentylenetetrazol-induced seizures at 40 mg/kg, ip after 0.5 hr. The format is functional, organism-based. More on the design: dose 40 mg/kg.
The test system of series [7] is Mus musculus. Put plainly: Anticonvulsant activity in Swiss albino Mus musculus (mouse) assessed as protection against subcutaneous pentylenetetrazol-induced seizures at 40 mg/kg, ip after 4 hr. Set-up: dose 40 mg/kg. It is filed as functional, organism-based.
In series [8] the test system is Mus musculus. Put plainly: Anticonvulsant activity in Swiss albino Mus musculus (mouse) assessed as protection against subcutaneous pentylenetetrazol-induced seizures at 20 mg/kg, ip after 0.5 hr. The format is functional, organism-based. Set-up: dose 20 mg/kg.
For series [9], the system named is Mus musculus. As to the kind of experiment: Anticonvulsant activity in Swiss albino Mus musculus (mouse) assessed as protection against maximal electroshock-induced seizures at 10 mg/kg, ip after 1 hr. It is filed as functional, organism-based. More on the design: dose 10 mg/kg.
Series [10] has as its system Mus musculus. As to the kind of experiment: Anticonvulsant activity in Swiss albino Mus musculus (mouse) assessed as protection against maximal electroshock-induced seizures at 40 mg/kg, ip after 4 hr. The format is functional, organism-based. Set-up: dose 40 mg/kg.
Series [11] deals with Mus musculus. Put plainly: Anticonvulsant activity in Swiss albino Mus musculus (mouse) assessed as protection against maximal electroshock-induced seizures at 20 mg/kg, ip after 2 hr. It is filed as functional, organism-based. More on the design: dose 20 mg/kg.
The test system of series [12] is Mus musculus. As to the kind of experiment: Anticonvulsant activity in Swiss albino Mus musculus (mouse) assessed as protection against maximal electroshock-induced seizures at 10 mg/kg, ip after 2 hr. Set-up: dose 10 mg/kg. The format is functional, organism-based.
The test system of series [13] is Mus musculus. As to the kind of experiment: Anticonvulsant activity in Swiss albino Mus musculus (mouse) assessed as protection against subcutaneous pentylenetetrazol-induced seizures at 20 mg/kg, ip after 4 hr. Set-up: dose 20 mg/kg. The format is functional, organism-based.
In series [14] the test system is Mus musculus. Put plainly: Anticonvulsant activity in Swiss albino Mus musculus (mouse) assessed as protection against subcutaneous pentylenetetrazol-induced seizures at 10 mg/kg, ip after 4 hr. It is filed as functional, organism-based. More on the design: dose 10 mg/kg.
Series [15] deals with Mus musculus. Put plainly: Neurotoxicity in Swiss albino Mus musculus (mouse) assessed as minimal motor impairment at 30 mg/kg, ip after 4 hr. Set-up: dose 30 mg/kg, route intraperitoneal. The format is toxicity, organism-based. The conditions noted are these: in vivo.
Series [16] deals with Mus musculus. Put plainly: Anticonvulsant activity in Swiss albino Mus musculus (mouse) assessed as protection against maximal electroshock-induced seizures at 20 mg/kg, ip after 4 hr. More on the design: dose 20 mg/kg. The format is functional, organism-based.
Series [17] deals with Mus musculus. Put plainly: Anticonvulsant activity in Swiss albino Mus musculus (mouse) assessed as protection against maximal electroshock-induced seizures at 10 mg/kg, ip after 4 hr. The format is functional, organism-based. More on the design: dose 10 mg/kg.
Series [18] has as its system Mus musculus. Put plainly: Anticonvulsant activity in Swiss albino Mus musculus (mouse) assessed as protection against maximal electroshock-induced seizures at 40 mg/kg, ip after 3 hr. It is filed as functional, organism-based. More on the design: dose 40 mg/kg.
Series [19] concerns Mus musculus. Put plainly: Anticonvulsant activity in Swiss albino Mus musculus (mouse) assessed as protection against maximal electroshock-induced seizures at 20 mg/kg, ip after 3 hr. The format is functional, organism-based. Set-up: dose 20 mg/kg.
The subject of series [20] is Mus musculus. Put plainly: Anticonvulsant activity in Swiss albino Mus musculus (mouse) assessed as protection against maximal electroshock-induced seizures at 10 mg/kg, ip after 3 hr. The format is functional, organism-based. More on the design: dose 10 mg/kg.
Series [21] relates to Mus musculus. As to the kind of experiment: Anticonvulsant activity in Swiss albino Mus musculus (mouse) assessed as protection against maximal electroshock-induced seizures at 40 mg/kg, ip after 2 hr. The format is functional, organism-based. More on the design: dose 40 mg/kg.
For series [22], the system named is Mus musculus. Put plainly: Anticonvulsant activity in Swiss albino Mus musculus (mouse) assessed as protection against subcutaneous pentylenetetrazol-induced seizures at 10 mg/kg, ip after 0.5 hr. It is filed as functional, organism-based. Set-up: dose 10 mg/kg.

As for `O=C1NC(=O)C(c2ccccc2)(c2ccccc2)N1`, the result with Mus musculus [1], with Mus musculus [2] and in the series with Mus musculus [3] was Active.
On to `CC(C)C(=O)NC1=CC(=O)C(=O)c2ccccc21`, for which the result in the series with Mus musculus [4], in the series on Mus musculus [5] and in the series on Mus musculus [6] was Active.
As for `CCCCCC(=O)NC1=CC(=O)C(=O)c2ccccc21`, the outcome with Mus musculus [7], in the series with Mus musculus [8], with Mus musculus [9], in the series on Mus musculus [10], with Mus musculus [11] and in the series on Mus musculus [12] was Active. For the same molecule, the outcome with Mus musculus [5] and in the series with Mus musculus [6] was Active.
On to `CCC(=O)NC1=CC(=O)C(=O)c2ccccc21`, for which the outcome in the series with Mus musculus [13], in the series with Mus musculus [14], in the series on Mus musculus [16] and in the series with Mus musculus [17] was inactive. Further, the Activity entry with Mus musculus [15] is listed as “Non-toxic”. Further, the outcome in the series on Mus musculus [5] was Active.
`CCCC(=O)NC1=CC(=O)C(=O)c2ccccc21`: the outcome with Mus musculus [7], with Mus musculus [8], in the series with Mus musculus [18], in the series on Mus musculus [4], in the series with Mus musculus [19] and in the series with Mus musculus [5] was Active. The outcome in the series on Mus musculus [6] was Active. The outcome with Mus musculus [17] was inactive.
On to `CC(=O)NC1=CC(=O)C(=O)c2ccccc21`, for which the outcome with Mus musculus [13], with Mus musculus [14], in the series with Mus musculus [10], in the series with Mus musculus [20], in the series on Mus musculus [16] and with Mus musculus [17] was inactive. The outcome with Mus musculus [4] and in the series on Mus musculus [5] was Active.
For `CC(=O)Nc1ccc(C(=O)NC2=CC(=O)C(=O)c3ccccc32)cc1`, in the series on Mus musculus [13], the result was inactive. For the same molecule, the outcome with Mus musculus [7], in the series with Mus musculus [8], in the series on Mus musculus [9], with Mus musculus [10], with Mus musculus [11] and with Mus musculus [4] was Active. The result in the series with Mus musculus [16], in the series on Mus musculus [21], with Mus musculus [12], in the series on Mus musculus [5] and with Mus musculus [6] was Active.
Turning to `CC(=O)NCC(=O)NC1=CC(=O)C(=O)c2ccccc21`, the result in the series on Mus musculus [14], with Mus musculus [18] and with Mus musculus [10] was inactive. For the same molecule, the outcome with Mus musculus [9] and in the series with Mus musculus [19] was Active.
With `O=C1C=C(NC(=O)c2ccccc2)c2ccccc2C1=O`, the outcome with Mus musculus [14], in the series with Mus musculus [22], in the series with Mus musculus [16], with Mus musculus [17] and in the series on Mus musculus [12] was inactive.
In the case of `O=C1C=C(NC(=O)c2cccnc2)c2ccccc2C1=O`, the outcome in the series with Mus musculus [16], in the series with Mus musculus [17] and in the series on Mus musculus [12] was inactive.
For `CC(C)CC(=O)NC1=CC(=O)C(=O)c2ccccc21`, the outcome with Mus musculus [8], in the series on Mus musculus [18], in the series on Mus musculus [20], with Mus musculus [4], with Mus musculus [19] and in the series on Mus musculus [5] was Active. In the series with Mus musculus [6], the result was Active.
